Measured values published in patent US5536723A, “S-nitroso derivatives of hydrazinoacetic acids, 1-[(acylthio and (mercapto)-1-oxoalkyl]-1,2,34-Tetrahydroquinoline-2-carboxylic acids and alanyl prolines and isoquinolines” (Brigham & Women's Hospital, priority 1994, dated 1996).
Entries after “also recorded” stand apart in the source; their conditions may differ.

Columns and labels:
[1] = test system: bovine femoral artery, contraction to angiotensin II; experiment: contraction of the bovine femoral artery to angiotensin II; conditions: for Contraction to Agonist: Angiotensin II
Protocol: The data are expressed as a percentage of the maximal response to norepinephrine (10^-4 M) and are shown as mean ±SEM in each group (n=6).
(§1) Blood Vessel Preparation. Bovine coronary or femoral arteries were obtained from an abattoir immediately after sacrifice of two- to four-week-old calves. Immediately after removal, the vessel was placed in ice-cold physiologic salt solution (PSS) containing 118.3 mM NaCl, 4.7 mM KCl, 2.5 mM CaCl2, 1.2 mM MgSO4, 1.2 mM KH2 PO4, 25.0 mM NaHCO3, 11.1 mM glucose, and 0.026 mM calcium disodium (ethylenedinitrilo)-tetraacetate. The vessels were then cleaned of adventitial tissue and cut into rings of approximately 5 mm lengths. When called for by the protocol, endothelium was removed from a ring by gently rubbing the luminal surface with a watchmaker's forceps. Vascular rings with intact endothelium were then suspended in organ chambers containing 25 ml of PSS at 37° aerated with 95% O2 -5% CO2. The rings were connected to force transducers (Grass FT03C, Quincy, Mass.) and changes in isometric force recorded continuously (Grass Polygraph Model 79B) over a period of 90 minutes. The optimal length-tension relationship was determined for each ring by observing the response to 10^-6 M norepinephrine after increments in tension of 0.5 gm. The functional integrity of the endothelium was assessed by contracting the vessel with 10^-6 M norepinephrine and then observing the response to 3×10^-7 M acetylcholine chloride.

bovine coronary artery = experiment: relaxation of isolated bovine coronary artery rings contracted with potassium chloride
From the text: FIG. 5 depicts a graph showing the relaxation to sodium nitroprusside in the bovine coronary artery in the presence (o; n=7) or absence (; n:12) of a subthreshhold dose of S-nitrosocaptopril. The data are expressed as a percentage of the initial tension generated by potassium chloride (4×10^-2 M; coronary arteries) and are shown as mean ±SEM in each group.
as §1
Thus, to study vasodilating agents in this tissue the vessels were first contracted with potassium chloride (40 mM). Relaxations are expressed as a percent of the concentration to 40 mM potassium chloride.
Relaxations to S-nitrosocaptopril were inhibited by the antagonist of soluble guanylate cyclase, methylene blue (FIG. 4). Sodium nitroprusside induced dose-dependent relaxations of contractions to potassium chloride. The relaxation to sodium nitroprusside was inhibited by subthreshold doses of S-nitrosocaptopril (FIG. 5).

bovine femoral artery = experiment: relaxation of isolated bovine femoral artery rings contracted with norepinephrine; conditions: methylene blue 10^-5 M; FIG. 4
Protocol: FIG. 2 depicts a graph showing the effect of S-nitrosocaptopril on the contraction of bovine femoral arteries to norepinephrine.
as §1
Vascular ring segments with intact endothelium were […] contracted with a concentration of norepinephrine inducing a half-maximal response. After a stable contraction had been achieved, the tissue was exposed to increasing concentrations of S-nitrosocaptopril in cumulative half-log increments. […] The apparent IC50 is approximately 1 μM.

[2] = test system: bovine femoral artery, contraction to angiotensin I; experiment: contraction of the bovine femoral artery to angiotensin I; conditions: for Contraction to Agonist: Angiotensin I
Protocol: The data are expressed as a percentage of the maximal response to norepinephrine (10^-6 M) and are shown as mean ±SEM in each group (n=7).
as §1

[3] = -Log M 6, Sar 10^-7 M, * p < 0.05
[4] = -Log M 6.5, Sar 10^-7 M, * p < 0.05
[5] = -Log M 7, Sar 10^-7 M, * p < 0.05
[6] = -Log M 7.5, Sar 10^-7 M, * p < 0.05
[7] = -Log M 8, Sar 10^-7 M, * p < 0.05
[8] = saralasin, lower concentrations than 10^-8 M

angiotensin II: powerful pressor agent; agonist (DRVYIHPF; Angiotensin-2; UniProt P01019 25-32, looked up)
Contraction to Agonist ([1]; -Log M 6, Sar 0 (control)): 57.9 ± 3.1 percentage of the maximal cont | Contraction to Agonist ([1]; -Log M 6.5, Sar 0 (control)): 57.1 ± 3.1 percentage of the maximal cont | Contraction to Agonist ([1]; -Log M 7, Sar 0 (control)): 47.2 ± 2.9 percentage of the maximal cont | Contraction to Agonist ([1]; -Log M 7.5, Sar 0 (control)): 40.3 ± 2.6 percentage of the maximal cont | Contraction to Agonist ([1]; -Log M 8, Sar 0 (control)): 28.8 ± 1.7 percentage of the maximal cont | Contraction to Agonist ([1]; -Log M 8.5, Sar 0 (control)): 11.8 ± 1.1 percentage of the maximal cont | Contraction to Agonist ([1]; -Log M 9, Sar 0 (control)): 0 percentage of the maximal cont | maximum contraction response to angiotensin II ([1]; n=6): 6.4 ± 2.5 g | EC50 ([1]; n=6, read-out: average ED50 of contraction to angiotensin II): 8.3 nM | maximum response to angiotensin II ([1]; without S-nitrosocaptopril, n=5): 55.8±6.9 % of the maximal response to norepinephrine

[Cl-].[K+] [potassium chloride]
stable contraction induced by potassium chloride (bovine coronary artery; 40 mM): 7.3 ± 4.3 g

CN(C)c1ccc2nc3ccc(=[N+](C)C)cc-3sc2c1 [methylene blue]
effect of methylene blue on relaxations to S-nitrosocaptopril, coronary artery (in words) (bovine coronary artery; methylene blue 10^-5 M, FIG. 4): significantly less than control (p<0.05); also recorded: inhibited | effect of methylene blue on relaxations to S-nitrosocaptopril, femoral artery (in words) (bovine femoral artery): significantly less than control (p<0.05)

angiotensin I: agonist; converted by ACE to angiotensin II by removal of the carboxy terminal His-Leu (DRVYIHPFHL; Angiotensin-1; UniProt P01019 25-34, looked up)
Contraction to Agonist ([2]; -Log M 6, Sar 0 (control)): 45.3 ± 13.5 percentage of the maximal cont | Contraction to Agonist ([2]; -Log M 6.5, Sar 0 (control)): 42.5 ± 13.4 percentage of the maximal cont | Contraction to Agonist ([2]; -Log M 7, Sar 0 (control)): 38.6 ± 15.9 percentage of the maximal cont | Contraction to Agonist ([2]; -Log M 7.5, Sar 0 (control)): 27.7 ± 12.7 percentage of the maximal cont | Contraction to Agonist ([2]; -Log M 8, Sar 0 (control)): 12.6 ± 11.4 percentage of the maximal cont | Contraction to Agonist ([2]; -Log M 8.5, Sar 0 (control)): 3.3 ± 5.9 percentage of the maximal cont | Contraction to Agonist ([2]; -Log M 9, Sar 0 (control)): 0 percentage of the maximal cont | maximum contraction response to angiotensin I ([2]; n=11): 4.4 ± 1.6 g

CNCC(=O)N[C@@H](CCCN=C(N)N)C(=O)N[C@H](C(=O)N[C@@H](Cc1ccc(O)cc1)C(=O)N[C@H](C(=O)N[C@@H](Cc1cnc[nH]1)C(=O)N1CCC[C@H]1C(=O)N[C@@H](C)C(=O)O)C(C)C)C(C)C [saralasin]
Contraction to Agonist [1, 3]: 6.0 percentage of the maximal cont | Contraction to Agonist ([1]; -Log M 6, Sar 10^-8 M): 32.8 ± 21.0 percentage of the maximal cont | Contraction to Agonist ([1]; -Log M 6, Sar 10^-9 M): 51.8 ± 18.8 percentage of the maximal cont | Contraction to Agonist [1, 4]: 9.2 ± 5.3 percentage of the maximal cont | Contraction to Agonist ([1]; -Log M 6.5, Sar 10^-8 M): 32.8 ± 20.4 percentage of the maximal cont | Contraction to Agonist ([1]; -Log M 6.5, Sar 10^-9 M): 51.8 ± 18.8 percentage of the maximal cont | Contraction to Agonist [1, 5]: 3.2 ± 1.8 percentage of the maximal cont | Contraction to Agonist ([1]; -Log M 7, Sar 10^-8 M): 32.4 ± 17.3 percentage of the maximal cont | Contraction to Agonist ([1]; -Log M 7, Sar 10^-9 M): 51.8 ± 18.8 percentage of the maximal cont | Contraction to Agonist [1, 6]: 2.8 ± 2.8 percentage of the maximal cont | Contraction to Agonist ([1]; -Log M 7.5, Sar 10^-8 M): 24.0 ± 13.8 percentage of the maximal cont | Contraction to Agonist ([1]; -Log M 7.5, Sar 10^-9 M): 43.4 ± 16.9 percentage of the maximal cont | Contraction to Agonist [1, 7]: 1.7 ± 1.7 percentage of the maximal cont | Contraction to Agonist ([1]; -Log M 8, Sar 10^-8 M): 10.7 ± 8.1 percentage of the maximal cont | Contraction to Agonist ([1]; -Log M 8, Sar 10^-9 M): 34.0 ± 12.9 percentage of the maximal cont | Contraction to Agonist ([1]; -Log M 8.5, Sar 10^-7 M): 0 percentage of the maximal cont | Contraction to Agonist ([1]; -Log M 8.5, Sar 10^-8 M): 0.9 ± 0.9 percentage of the maximal cont | Contraction to Agonist ([1]; -Log M 8.5, Sar 10^-9 M): 18.5 ± 9.6 percentage of the maximal cont | Contraction to Agonist ([1]; -Log M 9, Sar 10^-7 M): 0 percentage of the maximal cont | Contraction to Agonist ([1]; -Log M 9, Sar 10^-8 M): 0 percentage of the maximal cont | Contraction to Agonist ([1]; -Log M 9, Sar 10^-9 M): 2.4 ± 1.2 percentage of the maximal cont | effect of saralasin on contractions to angiotensin II (in words) ([1]; saralasin 10^-7 M): attenuated contractions | effect of saralasin on contractions to angiotensin II (in words) [1, 8]: no effect | Contraction to Agonist [2, 3]: 0.9 ± 0.9 percentage of the maximal cont | Contraction to Agonist ([2]; -Log M 6, Sar 10^-8 M): 35.5 ± 7.0 percentage of the maximal cont | Contraction to Agonist ([2]; -Log M 6, Sar 10^-9 M): 25.6 ± 13.0 percentage of the maximal cont | Contraction to Agonist [2, 4]: 0 percentage of the maximal cont | Contraction to Agonist ([2]; -Log M 6.5, Sar 10^-8 M): 35.7 ± 22.1 percentage of the maximal cont | Contraction to Agonist ([2]; -Log M 6.5, Sar 10^-9 M): 31.4 ± 10.7 percentage of the maximal cont | Contraction to Agonist [2, 5]: 0 percentage of the maximal cont | Contraction to Agonist ([2]; -Log M 7, Sar 10^-8 M, * p < 0.05): 19.6 ± 7.0 percentage of the maximal cont | Contraction to Agonist ([2]; -Log M 7, Sar 10^-9 M): 33.0 ± 12.6 percentage of the maximal cont | Contraction to Agonist [2, 6]: 0 percentage of the maximal cont | Contraction to Agonist ([2]; -Log M 7.5, Sar 10^-8 M, * p < 0.05): 16.3 ± 9.4 percentage of the maximal cont | Contraction to Agonist ([2]; -Log M 7.5, Sar 10^-9 M): 22.6 ± 10.1 percentage of the maximal cont | Contraction to Agonist [2, 7]: 0 percentage of the maximal cont | Contraction to Agonist ([2]; -Log M 8, Sar 10^-8 M): 7.9 ± 7.9 percentage of the maximal cont | Contraction to Agonist ([2]; -Log M 8, Sar 10^-9 M): 3.9 ± 1.5 percentage of the maximal cont | Contraction to Agonist ([2]; -Log M 8.5, Sar 10^-7 M): 0 percentage of the maximal cont | Contraction to Agonist ([2]; -Log M 8.5, Sar 10^-8 M): 1.6 ± 1.6 percentage of the maximal cont | Contraction to Agonist ([2]; -Log M 8.5, Sar 10^-9 M): 0 percentage of the maximal cont | Contraction to Agonist ([2]; -Log M 9, Sar 10^-7 M): 0 percentage of the maximal cont | Contraction to Agonist ([2]; -Log M 9, Sar 10^-8 M): 0 percentage of the maximal cont | Contraction to Agonist ([2]; -Log M 9, Sar 10^-9 M): 0 percentage of the maximal cont | effect of saralasin on contractions to angiotensin I (in words) ([2]; saralasin 10^-7 M): attenuated contractions | effect of saralasin on contractions to angiotensin I (in words) ([2]; saralasin 10^-8 M): inhibited contractions to angiotensin I | effect of saralasin on contractions to angiotensin I (in words) [2, 8]: no effect
